What was measured:
[1] = test system: leukocyte adherence to the vascular endothelium; assay: Aspirin-induced leukocyte adherence to the vascular endothelium, intravital microscopy of mesenteric venules; type: in vivo, rat
Description: Leukocyte adherence was studied using intravital microscopy, as described in detail previously (Wallace et al., (1993) Am. J. Physiol. 265: 993-998, incorporated hereto by reference). Rats were anesthetized with pentobarbital sodium (60 mg/kg i.p.) and cautery incisions were made along the abdominal region. A tracheotomy was performed to facilitate breathing. The rats were placed in a supine position, and a segment of the mesentery was exteriorized through the abdominal incision. The mesentery was carefully placed over an optically clear viewing pedestal that allowed for trans-illumination of a 2-cm^2 segment of tissue. All exposed tissue was covered with saline-soaked gauze to minimize dehydration. The temperature of the pedestal was kept at 37° C. and the mesentery was superfused with warmed bicarbonate-buffered saline (pH 7.4). An intravital microscope (Nikon L25/0.35) and a ×10 eyepiece were used to observe the mesenteric microcirculation. Post-capillary venules with diameters ranging from 20 to 40 μm were selected for the study. A video camera mounted on the microscope (Panasonic™ digital 5000) projected the image onto a monitor, and the images were recorded for playback analysis using a videocassette recorder. Images of the mesenteric microcirculation were recorded 5 minutes prior to aspirin administration (baseline), at the time of aspirin administration (time 0-5) and every 15 minutes for 60 minutes. Leukocyte adherence was blindly quantified from videotaped images of the vessels made over 5-min periods as the number of leukocytes that remained stationary along the vessel wall for 30 s or more (expressed per 100 μm venule length). Groups of rats (at least 5 in each) were pretreated with Compound XXXV (130 mg/kg), Compound XXVII (100 mg/kg), mesalamine (50 mg/kg), or vehicle 60 min prior to aspirin (or vehicle) administration. These drugs were given intragastrically. In some experiments, rats were treated with glibenclamide (10 mg/kg i.p.) or vehicle 30 min prior to administration of these compounds.

[2] = test system: visceral pain perception in response to colorectal distension; assay: Rat model of visceral pain perception, colorectal distension, abdominal withdrawal reflex score; type: in vivo
Description: A rat model of visceral pain perception, a pre-clinical model of irritable bowel syndrome, was used in the following example. Rats (male, Wistar, 200-250 g, obtained from Charles River, Monza, Italy), were housed in plastic cages and maintained under controlled conditions with 12-hours light/dark cycle with lights on at 7.00 AM. Tap water and standard laboratory chow were freely available. Before experiments, rats were individually trained by spending 2-3 hours per day in a plexiglass cage for 2-3 days. It allowed them to adjust to a movement-restriction environment. Food was withheld for 12 hours before colorectal distension (CRD) recording were performed. Experiments were performed in awake rats and were conducted in a blind manner in that the observer was not aware of the identity of drug administered to each animal.
In the testing day, rats were sedated with ether inhalation and a 2 cm long latex balloon was inserted intrarectally 2 cm from the anal verge and fixed at the base of the tail. The balloon was connected via a double-barreled cannula to a pressure transducer to continuously monitoring the rectal pressure by a computer (PowerLab PC, A.D. Instruments, Milford, Mass., USA) and to a syringe for inflation/deflation of the balloon. The rats were then housed in a small cage (20×8×8 cm) on an elevated Plexiglas™ platform and allowed to wake up and adapt for 1 hour. After recovery from sedation, animals underwent the CRD procedure and behavioral responses were tested. The night before the experiments, the balloons were inflated and left overnight so the latex stretched and the balloons became compliant.
CRD of 20 seconds, performed every 5 minutes, was applied in increment of 0.4 ml starting from 0.4 ml up to 1.6 ml water. To achieve an accurate measurement of the colonic parameters and perception, the distensions were repeated twice for each intensity and data for each animal were averaged for analysis. Each animal underwent a double set of CRD. Twenty minutes after the first sequence of CRD (0.4 mL-1.6 ml water), drugs were administered intraperitoneally (i.p.) and a second set of CRD was performed. Behavioral responses during the first and the second set of CRD were assessed and compared.
Behavioral response to CRD was assessed by measuring the abdominal withdrawal reflex (AWR) using a semiquantitative score (1).
The effects of mesalamine and Compound XXXV on colonic compliance and sensitivity were determined using a total of 8 fasting rats. To investigate whether the administration of mesalamine and Compound XXXV could revert pain induced by CRD, after the first sequence of CRD, […], after which a second set of CRD was repeated.
All data are presented as the mean±SEM, with sample sizes of 4 rats/group; statistical comparison of paired data was performed by the Wilcoxon signed rank test. An associated probability (p value) of less that 5% was considered significant.

[3] = test system: myeloperoxidase (MPO) activity; assay: TNBS-induced colitis in mice, colonic myeloperoxidase (MPO) activity as marker of granulocyte infiltration; type: in vivo
Description: A standard experimental animal model of colitis induced by intracolonic administration of 2,4,6-trinitrobenzene sulfonic acid (TNBS) to mice is used in the following example. A detailed description of this model has been published (Santucci et al. (2003) Gastroenterology 124:1381-94) and is incorporated herein by reference. Briefly, 6-8 week old Balb/c mice were given TNBS intracolonically at a dose of 1.5 mg in 0.1 mL of 30% ethanol. The mice were randomized to the various treatment groups (n=6 per group). Beginning one hour later and continuing every 12 h for 5 days, the mice were treated orally with vehicle (1% carboxymethylcellulose (CMC)), 5-ASA (mesalamine) (25, 50 or 75 mg/kg) or with equimolar doses of 2-hydroxy-5-amino-benzoic acid 4-(thioxo-5H-[1,2]dithiol-3-yl)-phenyl ester hydrochloride (Compound XXXV) (130 mg/kg), or with […] (100 mg/kg), 50% (66 mg/kg) and 25% (33 mg/kg) of that dose. The mice were evaluated (blindly) on the final day of the study for the presence of diarrhea and fecal occult blood, and their body weights were measured. […] After sacrifice, a sample of the colon was excised for measurement of myeloperoxidase (MPO) activity, as a marker of granulocyte infiltration. All results were compared to those obtained with healthy mice as well.

`Nc1ccc(O)c(C(=O)Oc2ccc(-c3cc(=S)ss3)cc2)c1` [Compound XXXV, 5-Amino-2-hydroxy-benzoic acid 4-(5-thioxo-5H-[1,2]dithiol-3-yl)-phenyl ester] was tested, and the “Aspirin-induced leukocyte adherence after glibenclamide pretreatment” value ([1]; glibenclamide 10 mg/kg i.p. 30 min prior to the compound, FIG. 19) was “reversed the inhibitory effect”, the Aspirin-induced leukocyte adherence ([1]; intragastric pretreatment 60 min prior to aspirin (XXXV 130 mg/kg, mesalamine 50 mg/kg), glibenclamide 10 mg/kg i.p., FIG. 19) was “prevented the aspirin-induced increase in leukocyte adherence” and the “Aspirin-induced leukocyte adherence, final time period” value ([1]; minutes 60-65, XXXV 130 mg/kg, XXVII 100 mg/kg intragastric, FIG. 20) was “suppress aspirin-induced leukocyte adherence”. For the same molecule, the “Aspirin-induced leukocyte adherence, final time period, after glibenclamide pretreatment” value ([1]; minutes 60-65, glibenclamide 10 mg/kg i.p., FIG. 20) was “reverse this inhibitor effect”, the “Perception score (visceral pain in response to colorectal distension)” value ([2]; 100 mg/kg i.p., second set of CRD 0.4-1.6 ml, FIG. 15) was “more effective than mesalamine (and vehicle) in reducing visceral pain” and the “Pain perception score after glibenclamide pretreatment” value ([2]; 0.8 mL colorectal distention, 100 mg/kg, glibenclamide 10 mg/kg i.p. 30 min before, FIG. 17) was “reversed by pretreatment with glibenclamide”. For the same molecule, the Pain perception score ([2]; 0.8 mL colorectal distention, 100 mg/kg, FIG. 17) was “significantly reduced the pain perception”, the Pain perception score ([2]; equimolar doses: mesalamine 50 mg/kg, Compound XXXV 130 mg/kg, ADT-OH 80 mg/kg, Compound XXVII 100 mg/kg, 4-HTB 50 mg/kg, vs vehicle) was “significantly reduced pain perception” and the “MPO activity (granulocyte infiltration)” value ([3]; Compound XXXV 130 mg/kg, FIG. 4) was “significantly reduced inflammation”. For the same molecule, the MPO activity ([3]; dose-ranging, oral every 12 h for 5 days, highest doses tested, FIG. 2) was “significantly reduced (almost in half)”.
